Experimental data from PMC10584170, “Machine learning-based phenotypic imaging to characterise the targetable biology of Plasmodium falciparum male gametocytes for the development of transmission-blocking antimalarials” (PLOS Pathogens, 2023).
pIC50: −log10 of the molar value. Read-outs that look alike come from different tables or passages of the source.

What was measured:
[1] = test system: P. falciparum male gametocytes; experiment: P. falciparum Dual Gamete Formation Assay (PfDGFA), male readout (exflagellation); type: cell-based, Plasmodium falciparum NF54; conditions: for pIC50: this study, read-out: Pf DGFA IC50 MALE
In short: (§1)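 First, day-14 P. falciparum NF54 gametocytes receive compound for 24 h at 37°C in 1% O2/3% CO2. Next, ookinete medium with Cy3 anti-Pfs25 triggers gametogenesis at 28°C and male exflagellation is imaged. Finally, after 24 h in the dark, Cy3-labelled females are imaged.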

[2] = test system: P. falciparum female gametocytes; experiment: P. falciparum Dual Gamete Formation Assay (PfDGFA), female readout (Pfs25-positive female gametes); type: cell-based, Plasmodium falciparum NF54; conditions: for pIC50: this study, read-out: Pf DGFA IC50 FEM
In short: as §1

[3] = test system: P. berghei ookinete development; experiment: P. berghei Ookinete Development Assay (PbODA); type: cell-based, Plasmodium berghei; conditions: Mean TOX HepG2 over Pb ODA value; GREEN = >10-fold; RED = <10-fold
Text: (§2) Fig 1 The activity of TCAMS compound identified in the Pf DGFA screen. (A) 85 molecules were confirmed active in the Pf DGFA. 58 were previously identified in one or more transmission-blocking screens. […] No molecule was identified with >4.7-fold greater activity against female gametocytes. Abbreviations (IC50 = concentration giving 50% inhibition, PbODA = P. berghei Ookinete Development Assay, PfDGFA = P. falciparum Dual Gamete Formation Assay, PfFGAA = P. falciparum Female Gametocyte Activation Assay, PfGCT = P. falciparum Gametocyte Viability ATP Assay).

[4] = test system: HepG2 cells; conditions: cited from earlier work
[5] = test system: HepG2 cells; experiment: HepG2 cytotoxicity counter-screen; conditions: for Mean TOX: mean of the HepG2 TOX50 values; for DGFA Tox50 HepG2: HepG2 value reported with the DGFA screen
[6] = test system: P. falciparum female gametocytes; experiment: P. falciparum Female Gametocyte Activation Assay (PfFGAA); type: cell-based, Plasmodium falciparum; conditions: Mean TOX HepG2 over FGAA IC50; GREEN = >10-fold; RED = <10-fold
Text: as §2

[7] = test system: P. falciparum female gametocytes; parameters: method as in Miguel-Blanco et al 2017; conditions: ref Miguel-Blanco et al 2017; read-out: Pf female gametogenesis FGAA IC50; cited from earlier work
[8] = test system: P. falciparum male gametocytes; experiment: PhIDDLI timecourse assay, compound added at timepoints after triggering male gametogenesis; type: cell-based, Plasmodium falciparum NF54; conditions: compound added between 0 and 5 min post induction
Method: To gain greater understanding of their activity, selected molecules displaying different inhibition phenotypes in the initial screen were re-tested. Rather than subjecting gametocytes to a 24h preincubation prior to inducing gametogenesis, compounds were added at varying timepoints after triggering male gametogenesis. Samples were then fixed 20 min post-induction, imaged and analysed similarly using the PhIDDLI pipeline.
Alternatively, if compound action over time was to be assessed, 1.5ml tubes with appropriate dilutions of test compounds were prepared for each timepoint. Gametogenesis was then triggered in the mature gametocyte culture with ookinete medium and temperature decrease from 37°C. At appropriate times, 200 μl of triggered culture was sampled and mixed with test compound. All samples were then allowed to continue gametogenesis and fixed as described previously with paraformaldehyde after 20 min (when a DMSO-treated sample could be expected to be exflagellating).
100 μl of the fixed cell suspensions were added to wells of a 24 well plate containing 1ml PBS and a poly-l-lysine-coated glass coverslip. Cells were allowed to settle and adhere to the coverslip overnight at 4°C before coverslips were transferred to a hydrophobic membrane (Parafilm) for immunofluorescence staining in a humidified, dark box. Cells were permeabilised with 0.1% Triton-X100 in PBS for 10 min before washing in PBS three times. Non-specific binding was blocked by incubating coverslips with PBS + 10% fetal bovine serum (FBS) (blocking buffer) for 1 h. Gametocytes and microgametes were visualised by labelling with an anti-alpha tubulin antibody (raised from chicken embryo brain tubulin but cross-reacts with many other species) (clone DM1A (Sigma)) 1:500 dilution in blocking buffer for 1 h, washed as before, and then stained with an anti-mouse Alexa488 secondary antibody (Thermo-Fisher) 1:1,000 dilution in blocking buffer for a further 1 h. After a final series of washes, the coverslips were mounted on glass slides with VectaShield mountant (Vector Laboratories) containing 4′,6-diamidino-2-phenylindole (DAPI) to visualise cellular DNA.
All slides were imaged using a Nikon Ti fluorescence microscope using an x100 oil objective and 1.5x zoom. For each sample, tubulin-postive, DAPI-positive stained gametocytes/gametes were imaged at random. Z-stack images with 0.3μm slices were captured for each field of view and images deconvolved and transformed by maximum intensity projection within the Nikon NIS Elements software. Within raw images, cells were initially identified by an automated analysis pipeline developed in ICY Bioimage Analysis based upon the intensity of the tubulin staining captured which assigns a region of interest (ROI) around each cell. All ROIs were reviewed by a trained operator and adjusted if necessary to reflect the true outline of the cell (for example if two cells touching had been allocated the same ROI). Raw images contained between 1 and 8 extractable cells.
Code for the PhIDDLI pipeline was written in Python 3.8 and executed by command line within a 64-bit Ubuntu virtual machine running within Oracle VM VirtualBox 6.1. […] Principle component analysis of compound phenotypes (Fig 5) was performed using ClustViz (https://biit.cs.ut.ee/clustvis/) using ln(x+1) transformation, and k-means clustering of the resultant PCA data was coded in R and executed in R Studio version 1.1.456 to identify optimum cluster using the elbow method.

Structure (SMILES) | pIC50 [1] | pIC50 [2] | Cytotox ratio Pf Male [1] | Cytotox ratio Pf Female [2] | Cytotox ratio Pb Ookinete [3] | ODA TOX50 HepG2 [4] | Mean TOX [5] | Cytotox ratio Pf FGAA [6] | pIC50 [7] | FGAA TOX50 HepG2 [4] | DGFA Tox50 HepG2 [5] | effect on exflagellation [8]
Cc1cccc(Nc2nc(N[C@@H]3CCCNC3)nc3cc[nH]c(=O)c23)c1.O=C(O)C(F)(F)F [TC29] | 6.68 | 5.11 | 19.5 | 0.532 | 3922.6 | 4.57 µM | 4.09 µM | 2.2 | 5.73 | 3.25 µM |  | 
O=C(O)C(F)(F)F.O=c1[nH]ccc2nc(N[C@@H]3CCCNC3)nc(Nc3ccc(S(=O)(=O)N4CCOCC4)cc3)c12 [TC42] | 7.22 | 5.09 | 563.3 | 4.1 | 23182.4 | 45.71 µM | 33.80 µM |  |  |  |  | 
CN1CCN(c2ccc(Nc3ncc(C#N)c(Nc4ccccc4C(N)=O)n3)cc2)CC1.Cl [TC49] | 7.52 | 5.04 | 102.3 | 0.335 | 95106.6 | 2.427 µM | 3.07 µM |  |  |  |  | 
COc1ccc(Nc2ncc(OC)c(Nc3ccccc3C(N)=O)n2)cc1N1CCN(C)CC1.O=CO [TC59] | 6.74 | 5.10 | 52.0 | 1.2 | 19018.5 | 13.49 µM | 9.37 µM |  |  |  |  | 
Cc1cc(C(=O)OCC(=O)Nc2c(C)n(C)n(-c3ccccc3)c2=O)c(C)n1-c1ccc(F)cc1 [TC63] | 5.72 | 5.84 | 31.4 | 41.8 | 166949.3 | 19.5 µM | 59.75 µM |  |  |  | 100 µM | 
COc1ccc2nc(-c3cc(-c4ccc(NC(C)=O)cc4)cnc3N)[nH]c2c1 [TC69] | 6.27 |  | 14.0 | 0.755 | 10513.6 | 12.02 µM | 7.55 µM |  |  |  |  | 
C#C[C@H]1O[C@@H](n2cnc3c(Nc4cc(Br)cc(C(F)(F)F)c4)ncnc32)[C@H](O)[C@@H]1O [TC70] | 6.52 |  | 262.6 | 7.9 | 88432.3 | 57.54 µM | 78.77 µM |  |  |  | 100 µM | 
COc1ccc(Nc2ncc(Cl)c(Nc3cccnc3C(N)=O)n2)cc1N1CCN(C)CC1.Cl [TC75] | 6.40 |  | 17.8 | 0.7 | 11414.1 | 11.22 µM | 7.10 µM |  |  |  |  | 
CC[C@]1(O)C[C@@H]2CN(CCc3c([nH]c4ccccc34)[C@@](C(=O)OC)(c3cc4c(cc3OC)N(C)[C@H]3[C@@](O)(C(=O)OC)[C@H](OC(C)=O)[C@]5(CC)C=CCN6CC[C@]43[C@@H]65)C2)C1 [vinblastine, reference compound] |  |  |  |  |  |  |  |  |  |  |  | strongly inhibited exflagellation

The next lines start with results.

pIC50 [1] | pIC50 [2] | Structure (SMILES) | Cytotox ratio Pf Male [1] | Cytotox ratio Pf Female [2] | Cytotox ratio Pb Ookinete [3] | ODA TOX50 HepG2 [4] | Mean TOX [5] | Cytotox ratio Pf FGAA [6] | pIC50 [7] | FGAA TOX50 HepG2 [4] | DGFA Tox50 HepG2 [5] | effect on exflagellation [8]
6.34 | 5.26 | CN1CCN(c2ccc(Nc3ncc(Cl)c(Nc4cccnc4C(N)=O)n3)cc2)CC1.Cl [TC24] | 11.9 | 1.0 | 13093.5 | 4.624 µM | 5.46 µM |  |  |  |  | 
6.55 |  | COc1ccc(-c2cnc(N)c(-c3ccc(C(N)=O)cc3)c2)cc1OC [TC26] | 205.6 | 5.8 | 82067.7 | 100 µM | 57.57 µM |  |  |  |  | 
6.74 |  | CNC(=O)c1ccccc1Nc1nc(Nc2ccc(N3CCOCC3)cc2)ncc1Cl.Cl [TC28] | 12.4 | 0.223 | 3489.3 | 3.631 µM | 2.23 µM |  |  |  |  | 
6.37 |  | COc1ccc2nc(-c3cc(-c4ccc(NC(=O)C(C)C)cc4)cnc3N)[nH]c2c1 [TC32] | 19.8 | 0.85 | 12253.3 | 8.61 µM | 8.50 µM |  |  |  |  | 
6.33 |  | Cl.NC(=O)c1ccccc1Nc1nc(Nc2cccc(N3CCN(CCO)CC3)c2)ncc1Cl [TC33] | 58.3 | 2.7 | 311828.0 | 41.687 µM | 27.38 µM |  |  |  |  | 
6.14 | 6.25 | Cn1c(Sc2ncnc3sccc23)nc2ccccc21 [TC34] | 138.9 | 178.6 | 156933.9 | 100 µM | 100.00 µM | 80.0 | 5.90 | 100 µM | 100 µM | 
7.40 | 5.13 | Cc1cc(Nc2ncc(C#N)c(Nc3ccccc3C(N)=O)n2)ccc1N1CCN(C)CC1.Cl [TC37] | 45.1 | 0.244 | 66058.5 | 3.981 µM | 1.80 µM | 1.1 | 5.78 | 0.4 µM |  | 
6.51 | 5.12 | Cc1ccc(S(=O)(=O)N(CCCNCc2cccc(O)c2)c2ccccc2)cc1 [TC44] | 119.3 | 4.8 | 26220.7 | 34.6737 µM | 36.97 µM | 32.4 | 5.94 | 44.67 µM |  | 
6.42 | 6.60 | Cc1ccc(-n2c(Sc3ncnc4sccc34)nnc2N2CCCC2)cc1 [TC46] | 207.3 | 315.2 | 177427.8 | 74.1 µM | 78.79 µM | 160.8 | 6.31 | 89.13 µM |  | 
8.00 |  | CCS(=O)(=O)Nc1ccc2c(c1)/C(=C(/Nc1ccc(CN3CCCCC3)cc1)c1ccccc1)C(=O)N2 [TC81] | 877.0 | 0.9 | 6770.0 | 16.98 µM | 8.77 µM |  |  |  |  | 
